Experiment [1] has as its target T1, OGG1 (Homo sapiens, UniProt O15527). In words: Differential scanning fluorimetry. The experiment is classed as binding. Background: In DSF a fluorescence change marks the thermal transition of the protein.
In experiment [2] the target is T1, OGG1. The experiment in a line: biochemical. As to conditions: IC50 (CI95), biochemical inhibition, confidence interval 95 in parentheses.

Each structure is given as a SMILES string.

For orientation: IC50 means the midpoint of a concentration-inhibition curve.

T1 sequence (O15527 whole entry): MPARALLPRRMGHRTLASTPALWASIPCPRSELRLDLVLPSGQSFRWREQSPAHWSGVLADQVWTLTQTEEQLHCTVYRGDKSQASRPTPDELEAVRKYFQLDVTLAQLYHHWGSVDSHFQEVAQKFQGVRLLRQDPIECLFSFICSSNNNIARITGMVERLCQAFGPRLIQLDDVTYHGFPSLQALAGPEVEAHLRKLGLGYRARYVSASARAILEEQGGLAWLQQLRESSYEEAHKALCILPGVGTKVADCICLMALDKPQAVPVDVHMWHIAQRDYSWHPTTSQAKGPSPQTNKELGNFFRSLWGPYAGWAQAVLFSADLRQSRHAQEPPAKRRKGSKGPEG

As to `Cc1ccc(NC(=O)N2CCC(n3c(=O)[nH]c4c(Br)cccc43)CC2)cc1` [Compound 45, 4‐(4‐bromo‐2‐oxo‐2,3‐dihydro‐1H‐1,3‐benzodiazol‐1‐yl)‐N‐(4‐methylphenyl)piperidine‐1‐carboxamide], the “DSF stabilization (ΔT)” value on OGG1 [1] is on record as 5.1 K. For the same compound, the IC50 at OGG1 [2] amounted to 2100 nM.

With `O=C(Nc1ccc(I)cc1)N1CCC(n2c(=O)[nH]c3ccccc32)CC1` [Compound 8, N‐(4‐iodophenyl)‐4‐(2‐oxo‐2,3‐dihydro‐1H‐1,3‐benzodiazol‐1‐yl)piperidine‐1‐carboxamide], the “DSF stabilization (ΔT)” value at OGG1 [1] was found to be 2.4 K. Moreover, the IC50 at OGG1 [2] came out at 2900 nM.

`CC(C)(C)c1ccc(NC(=O)N2CCC(n3c(=O)[nH]c4c(Br)cccc43)CC2)cc1` [Compound 46, 4‐(4‐bromo‐2‐oxo‐2,3‐dihydro‐1H‐1,3‐benzodiazol‐1‐yl)‐N‐(4‐tert‐butylphenyl)piperidine‐1‐carboxamide]: at OGG1 [1], the “DSF stabilization (ΔT)” value came out at 0.0 K. The IC50 at OGG1 [2] was 46000 nM.

As for `Cc1ccc2c(c1)[nH]c(=O)n2C1CCN(C(=O)Nc2ccc(I)cc2)CC1` [Compound 21, 4‐(5‐methyl‐2‐oxo‐2,3‐dihydro‐1H‐1,3‐benzodiazol‐1‐yl)‐N‐(4‐iodophenyl)piperidine‐1‐carboxamide], on OGG1 [1], the “DSF stabilization (ΔT)” value was found to be 3.8 K. The IC50 on OGG1 [2] stood at 1700 nM.

For the compound `COc1cc(NC(=O)N2CCC(n3c(=O)[nH]c4c(Br)cccc43)CC2)ccc1Cl` [Compound 54, 4‐(4‐bromo‐2‐oxo‐2,3‐dihydro‐1H‐1,3‐benzodiazol‐1‐yl)‐N‐(4‐chloro‐3‐methoxyphenyl)piperidine‐1‐carboxamide], on OGG1 [1], the “DSF stabilization (ΔT)” value turned out to be 1.9 K. Also, the IC50 at OGG1 [2] worked out at 300 nM.

`O=C(Nc1ccc(Br)cc1)N1CCC(n2c(=O)[nH]c3ccccc32)CC1` [Compound 7, N‐(4‐bromophenyl)‐4‐(2‐oxo‐2,3‐dihydro‐1H‐1,3‐benzodiazol‐1‐yl)piperidine‐1‐carboxamide]: on OGG1 [1], the “DSF stabilization (ΔT)” value is listed as 2.1 K. Besides, the IC50 at OGG1 [2] turned out to be 7000 nM.

Take `O=C(Nc1ccc(Br)cc1)N1CCC(n2c(=O)[nH]c3c(Br)cccc32)CC1` [Compound 44, 4‐(4‐bromo‐2‐oxo‐2,3‐dihydro‐1H‐1,3‐benzodiazol‐1‐yl)‐N‐(4‐bromophenyl)piperidine‐1‐carboxamide]: on OGG1 [1], the “DSF stabilization (ΔT)” value came to 4.2 K. The IC50 on OGG1 [2] is 190 nM.

Consider `O=C(Nc1ccc(Cl)c(Cl)c1)N1CCC(n2c(=O)[nH]c3c(Br)cccc32)CC1` [Compound 53, 4‐(4‐bromo‐2‐oxo‐2,3‐dihydro‐1H‐1,3‐benzodiazol‐1‐yl)‐N‐(3,4‐dichlorophenyl)piperidine‐1‐carboxamide], for which, at OGG1 [1], the “DSF stabilization (ΔT)” value is 3.1 K. Also, on OGG1 [2], the IC50 is 440 nM.

Take `O=C(Nc1ccc(Cl)cc1)N1CCC(n2c(=O)[nH]c3c(Br)cccc32)CC1` [Compound 43, 4‐(4‐bromo‐2‐oxo‐2,3‐dihydro‐1H‐1,3‐benzodiazol‐1‐yl)‐N‐(4‐chlorophenyl)piperidine‐1‐carboxamide]: the “DSF stabilization (ΔT)” value at OGG1 [1] turned out to be 4.2 K. For the same compound, at OGG1 [2], the IC50 is 350 nM.

As for `COc1ccc(NC(=O)N2CCC(n3c(=O)[nH]c4c(Br)cccc43)CC2)cc1OC` [Compound 56, 4‐(4‐bromo‐2‐oxo‐2,3‐dihydro‐1H‐1,3‐benzodiazol‐1‐yl)‐N‐(3,4‐dimethoxyphenyl)piperidine‐1‐carboxamide], the “DSF stabilization (ΔT)” value at OGG1 [1] is 5.1 K. Besides, the IC50 on OGG1 [2] turned out to be 4400 nM.

On to `COc1cc(NC(=O)N2CCC(n3c(=O)[nH]c4c(Br)cccc43)CC2)ccc1C` [Compound 55, 4‐(4‐bromo‐2‐oxo‐2,3‐dihydro‐1H‐1,3‐benzodiazol‐1‐yl)‐N‐(3‐methoxy‐4‐methylphenyl)piperidine‐1‐carboxamide], for which the “DSF stabilization (ΔT)” value at OGG1 [1] came out at 1.8 K. Also, the IC50 on OGG1 [2] worked out at 200 nM.

The record behind these values is article PMC10092094 (Chemmedchem, 2022).
